Experimental data as given in patent US20260217687A1 (NeoPhore Limited, priority 2023, published 2026).

Each molecule was assayed against T1, recombinant N-terminal MLH1 (residues 15-340) (Homo sapiens, UniProt P40692) (assay: Fluorescence Polarisation Assay for MLH1). Details: 100 nM N-terminal MLH1, 5 nM probe compound.
T1 construct: recombinant N-terminal MLH1 (residues 15-340)
T1 sequence (P40692 15-340): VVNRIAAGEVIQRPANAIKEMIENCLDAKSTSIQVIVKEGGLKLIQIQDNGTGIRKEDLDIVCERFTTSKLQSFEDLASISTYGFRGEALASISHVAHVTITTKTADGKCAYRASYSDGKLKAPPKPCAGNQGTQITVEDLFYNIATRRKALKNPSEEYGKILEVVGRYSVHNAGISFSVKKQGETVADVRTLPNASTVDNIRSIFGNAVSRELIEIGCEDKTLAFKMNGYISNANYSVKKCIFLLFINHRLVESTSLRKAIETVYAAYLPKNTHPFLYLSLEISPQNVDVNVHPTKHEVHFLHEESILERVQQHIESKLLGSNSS
Format: binding
Protocol: Fluorescence Polarisation Assay for MLH1
Test compounds, as 10 mM DMSO stocks, were dispensed into a 384-well Low Flange Black Flat Bottom Polystyrene Non-binding Surface plate (Corning®, item number 3575) using a Labcyte Echo acoustic liquid handler. […] 20 μL of a 2× solution (200 nM) of recombinant N-terminal MLH1 (residues 15-340) in assay buffer (25 mM HEPES, pH 7.5, 250 mM NaCl, 10 mM MgCl2, 0.01% Triton X-100, 5 mM Dithiothreitol) was added to all wells in columns 1-23 and 20 μL assay buffer was added to all wells in column 24 using an E1-ClipTip pipette (ThermoFisher). Plates were centrifuged for 1 minute at 250 xg and were incubated at room temperature for 30 minutes prior to the addition of 20 μL of 2×(10 nM) of 5-((5-(4-((2-(2-(Benzyloxy)-4,6-dihydroxybenzoyl)isoindolin-5-yl)methyl)piperazin-1-yl)pentyl)carbamoyl)-2-(6-(dimethylamino)-3-(dimethyliminio)-3H-xanthen-9-yl)benzoate (referred to hereinafter as “probe compound”) in assay buffer (prepared from a 1 mM DMSO stock) with an E1-ClipTip pipette (ThermoFisher). The final concentration of N-terminal MLH1 was 100 nM and the final concentration of the probe compound was 5 nM. Compound plates were centrifuged for 1 minute at 250 xg for 1 minute and immediately read on a PheraStar FSX (fitted with 384-well aperture spoon and 590 675 675 FP optic module). The gain and focus were adjusted before each plate was read so that the polarisation of a no enzyme control (column 24) was equal to 35 mP. Data were normalised against the no inhibitor controls (column 23) and no enzyme controls (column 24).

Compared with `O=C(c1c(O)cc(C(F)F)cc1OCc1ccccc1)N1CCc2c(NC3CCOC3)cccc21` (centres unmarked) [Example 27.24, (2-(Benzyloxy)-4-(difluoromethyl)-6-hydroxyphenyl)(4-((tetrahydrofuran-3-yl)amino)indolin-1-yl)methanone], `O=C(c1c(O)cc(F)cc1OCc1ccccc1)N1Cc2cccc(N[C@H]3CCOC3)c2C1` [Example 5, (S)-(2-(Benzyloxy)-4-fluoro-6-hydroxyphenyl)(4-((tetrahydrofuran-3-yl)amino)isoindolin-2-yl)methanone] is lower in IC50: 1 to 10 µM for the first, 0.1 to 1 µM for the second.

Compared with `CN(C)CCOc1ccc2c(c1)CN(C(=O)c1c(O)cc(C(F)F)cc1OCc1ccccc1)CC2` [Example 4.40, (2-(Benzyloxy)-4-(difluoromethyl)-6-hydroxyphenyl)(7-(2-(dimethylamino)ethoxy)-3,4-dihydroisoquinolin-2(1H)-yl)methanone], `CN(C)CCOc1ccc2c(c1)CCN(C(=O)c1c(O)cc(F)cc1OCc1ccccc1)C2` [Example 10.24, (2-(Benzyloxy)-4-fluoro-6-hydroxyphenyl)(6-(2-(dimethylamino)ethoxy)-3,4-dihydroisoquinolin-2(1H)-yl)methanone] is higher in IC50: 0.1 to 1 µM for the first, 1 to 10 µM for the second. The first is the more potent here.

`N#Cc1cc(O)c(C(=O)N2CCc3cc(NC4CCOC4)ccc32)c(OCc2ccccc2)c1` (centres unmarked) [Example 27.4, 3-(Benzyloxy)-5-hydroxy-4-(5-((tetrahydrofuran-3-yl)amino)indoline-1-carbonyl)benzonitrile] and `CC(=O)N1CCC[C@@H](Nc2cccc3c2CN(C(=O)c2c(O)cc(C#N)cc2OCc2ccccc2)C3)C1` [Example 10.17, (R)-4-(4-((1-Acetylpiperidin-3-yl)amino)isoindoline-2-carbonyl)-3-(benzyloxy)-5-hydroxybenzonitrile] fall in the same range of IC50: 1 to 10 µM for the first, 1 to 10 µM for the second.

`CN1CCN(Cc2ccc3c(c2)CCN(C(=O)c2c(O)cc(C(F)F)cc2OCc2ccccc2)C3)CC1` [Example 4.47, (2-(Benzyloxy)-4-(difluoromethyl)-6-hydroxyphenyl)(6-((4-methylpiperazin-1-yl)methyl)-3,4-dihydroisoquinolin-2(1H)-yl)methanone] and `O=C(c1c(O)cc(C(F)F)cc1OCc1ccccc1)N1CCc2cc(Cn3ccnc3)ccc2C1` [Example 4.49, (6-((1H-Imidazol-1-yl)methyl)-3,4-dihydroisoquinolin-2(1H)-yl)(2-(benzyloxy)-4-(difluoromethyl)-6-hydroxyphenyl)methanone] fall in the same range of IC50: 0.1 to 1 µM for the first, 0.1 to 1 µM for the second.

`CC(=O)N1CC(Nc2cccc3c2CN(C(=O)c2c(O)cc(F)cc2OCc2ccccc2)C3)C1` [Example 10.23, 1-(3-((2-(2-(Benzyloxy)-4-fluoro-6-hydroxybenzoyl)isoindolin-4-yl)amino)azetidin-1-yl)ethan-1-one] and `CC(=O)N1CCC(Nc2cccc3c2CN(C(=O)c2c(O)cc(C#N)cc2OCc2ccccc2)C3)CC1` [Example 10.16, 4-(4-((1-Acetylpiperidin-4-yl)amino)isoindoline-2-carbonyl)-3-(benzyloxy)-5-hydroxybenzonitrile] fall in the same range of IC50: 0.1 to 1 µM for the first, 0.1 to 1 µM for the second.

First: COc1cccc(COc2cc(C(F)F)cc(O)c2C(=O)N2Cc3cccc(N[C@H]4CCOC4)c3C2)c1 [Example 4.1, (S)-(4-(Difluoromethyl)-2-hydroxy-6-((3-methoxybenzyl)oxy)phenyl)(4-((tetrahydrofuran-3-yl)amino)isoindolin-2-yl)methanone]
Second: O=C(c1c(O)cc(C(F)F)cc1OCc1ccc2cnccc2c1)N1CCc2cccc(N[C@H]3CCOC3)c2C1 [Example 28.2, (S)-(4-(Difluoromethyl)-2-hydroxy-6-(isoquinolin-6-ylmethoxy)phenyl)(8-((tetrahydrofuran-3-yl)amino)-3,4-dihydroisoquinolin-2(1H)-yl)methanone]
The IC50 of the first is higher: 0.1 to 1 µM for the first, < 0.1 µM for the second.

`COCCOc1ccc2c(c1)CN(C(=O)c1c(O)cc(C(F)F)cc1OCc1ccccc1)C2` [Example 4.77, (2-(Benzyloxy)-4-(difluoromethyl)-6-hydroxyphenyl)(5-(2-methoxyethoxy)isoindolin-2-yl)methanone] and `COCCNc1cccc2c1CN(C(=O)c1c(O)cc(C(F)F)cc1OCc1ccccc1)C2` [Example 4.28, (2-(Benzyloxy)-4-(difluoromethyl)-6-hydroxyphenyl) (4-((2-methoxyethyl)amino)isoindolin-2-yl)methanone] fall in the same range of IC50: 0.1 to 1 µM for the first, 0.1 to 1 µM for the second.

First: CN1CC[C@H](Nc2cccc3c2CN(C(=O)c2c(O)cc(C(F)F)cc2OCc2ccccc2)CC3)C1=O [Example 4.13, (S)-3-((2-(2-(benzyloxy)-4-(difluoromethyl)-6-hydroxybenzoyl)-1,2,3,4-tetrahydroisoquinolin-8-yl)amino)-1-methylpyrrolidin-2-one]
Second: Cn1ncc2ccc(COc3cc(C(F)F)cc(O)c3C(=O)N3CCc4cccc(N[C@H]5CCOC5)c4C3)cc21 [Example 28, (S)-(4-(Difluoromethyl)-2-hydroxy-6-((1-methyl-1H-indazol-6-yl)methoxy)phenyl)(8-((tetrahydrofuran-3-yl)amino)-3,4-dihydroisoquinolin-2(1H)-yl)methanone]
The IC50 of the first is higher: 0.1 to 1 µM for the first, < 0.1 µM for the second.

First: CN(C)Cc1cc2c(c(N[C@H]3CCOC3)c1)CN(C(=O)c1c(O)cc(C(F)F)cc1OCc1ccccc1)C2 [Example 4.2, (S)-(2-(Benzyloxy)-4-(difluoromethyl)-6-hydroxyphenyl)(6-((dimethylamino)methyl)-4-((tetrahydrofuran-3-yl)amino)isoindolin-2-yl)methanone]
Second: CN(C)Cc1cc2c(c(N[C@H]3CCOC3)c1)CN(C(=O)c1c(O)cc(C(F)F)cc1OCc1ccccc1)CC2 [Example 4.21, (S)-(2-(Benzyloxy)-4-(difluoromethyl)-6-hydroxyphenyl)(6-((dimethylamino)methyl)-8-((tetrahydrofuran-3-yl)amino)-3,4-dihydroisoquinolin-2(1H)-yl)methanone]
The IC50 of the first is higher: 0.1 to 1 µM for the first, < 0.1 µM for the second.

First: Cn1cnc(-c2cc3c(c(N[C@H]4CCOC4)c2)CN(C(=O)c2c(O)cc(C(F)F)cc2OCc2ccccc2)CC3)c1 [Example 4.27, (S)-(2-(Benzyloxy)-4-(difluoromethyl)-6-hydroxyphenyl) (6-(1-methyl-1H-imidazol-4-yl)-8-((tetrahydrofuran-3-yl)amino)-3,4-dihydroisoquinolin-2(1H)-yl)methanone]
Second: CN(C)CCOc1cc2c(c(NC3CCCC3)c1)CN(C(=O)c1c(O)cc(C(F)F)cc1OCc1ccccc1)CC2 [Example 4.72, (2-(Benzyloxy)-4-(difluoromethyl)-6-hydroxyphenyl)(8-(cyclopentylamino)-6-(2-(dimethylamino)ethoxy)-3,4-dihydroisoquinolin-2(1H)-yl)methanone]
The IC50 of the first is higher: 0.1 to 1 µM for the first, < 0.1 µM for the second.

`O=C(c1c(O)cc(C(F)F)cc1OCc1ccccc1)N1Cc2ccc(Oc3ccncc3)cc2C1` [Example 4.60, (2-(Benzyloxy)-4-(difluoromethyl)-6-hydroxyphenyl)(5-(pyridin-4-yloxy)isoindolin-2-yl)methanone] and `O=C(c1c(O)cc(C(F)F)cc1OCc1ccccc1)N1CCc2ccc(Cn3ccnc3)cc2C1` [Example 4.48, (7-((1H-Imidazol-1-yl)methyl)-3,4-dihydroisoquinolin-2(1H)-yl)(2-(benzyloxy)-4-(difluoromethyl)-6-hydroxyphenyl)methanone] fall in the same range of IC50: 0.1 to 1 µM for the first, 0.1 to 1 µM for the second.

For `COc1cc(C#N)cc(O)c1C(=O)N1Cc2cccc(N[C@H]3CCOC3)c2C1` [Example 12.1, (S)-3-Hydroxy-5-methoxy-4-(4-((tetrahydrofuran-3-yl)amino)isoindoline-2-carbonyl)benzonitrile], the IC50 was 1 to 10 µM.
